Test results from ChEMBL document CHEMBL1145401, “Design and synthesis of classical and nonclassical 6-arylthio-2,4-diamino-5-ethylpyrrolo[2,3-d]pyrimidines as antifolates” (J Med Chem, 2007).

Tests used:
CCRF-CEM [1] = test: Effect on growth of human CCRF-CEM cells at 5000 nM in presence of 10 uM deoxycytidine, 10 uM hypoxanthine relative to control; assay type: functional
MOLT-4 = test: Cytotoxicity against MOLT4 cells; assay type: functional; settings: Homo sapiens
SF-539 = test: Cytotoxicity against SF539 cells; assay type: functional; settings: Homo sapiens
MCF7 = test: Cytotoxicity against MCF7 cells; assay type: functional; settings: Homo sapiens
SR = test: Cytotoxicity against SR cells; assay type: functional; settings: Homo sapiens
CCRF-CEM [2] = test: Effect on growth of human CCRF-CEM cells at 5000 nM in presence of 10 uM deoxycytidine, 5 uM thymidine relative to control; assay type: functional
LOX IMVI = test: Cytotoxicity against LOX IMVI cells; assay type: functional; settings: Homo sapiens
CCRF-CEM [3] = test: Effect on growth of human CCRF-CEM cells at 5000 nM in presence of 10 uM deoxycytidine relative to control; assay type: functional
SW-620 = test: Cytotoxicity against SW620 cells; assay type: functional; settings: Homo sapiens
UACC-62 = test: Cytotoxicity against UACC62 cells; assay type: functional; settings: Homo sapiens
DU-145 = test: Cytotoxicity against DU145 cells; assay type: functional; settings: Homo sapiens
CCRF-CEM [4] = test: cells; settings: Homo sapiens
U-251 = test: Cytotoxicity against U251 cells; assay type: functional; settings: Homo sapiens
CCRF-CEM [5] = test: Cytotoxicity against CCRF-CEM cells; assay type: functional; settings: Homo sapiens
Dihydrofolate reductase = Dihydrofolate reductase (Homo sapiens, UniProt P00374)
SN12C = test: Cytotoxicity against SN12C cells; assay type: functional; settings: Homo sapiens
CCRF-CEM [6] = test: Growth inhibition of human CCRF-CEM cells
OVCAR-8 = test: Cytotoxicity against OVCAR8 cells; assay type: functional; settings: Homo sapiens
CCRF-CEM [7] = test: Effect on growth of human CCRF-CEM cells at 5000 nM in presence of 10 uM deoxycytidine, 5 uM thymidine and 10 uM hypoxanthine relative to control; assay type: functional
CAKI-1 = test: Cytotoxicity against CAKI1 cells; assay type: functional; settings: Homo sapiens
SF-268 = test: Cytotoxicity against SF268 cells; assay type: functional; settings: Homo sapiens
UO-31 = test: Cytotoxicity against UO31 cells; assay type: functional; settings: Homo sapiens
PC-3 = test: Cytotoxicity against PC3 cells; assay type: functional; settings: Homo sapiens
KM12 = test: Cytotoxicity against KM12 cells; assay type: functional; settings: Homo sapiens
SF-295 = test: Cytotoxicity against SF295 cells; assay type: functional; settings: Homo sapiens
HCT-116 = test: Cytotoxicity against HCT116 cells; assay type: functional; settings: Homo sapiens
CCRF-CEM [8] = test: cells; settings: Homo sapiens; remark: listed apart in the source
MDA-MB-435 = test: Cytotoxicity against MDA-MB-435 cells; assay type: functional; settings: Homo sapiens
CCRF-CEM [9] = test: cells; settings: Homo sapiens; remark: listed apart in the source
K562 = test: Cytotoxicity against K562 cells; assay type: functional; settings: Homo sapiens
NCI-H460 = test: Cytotoxicity against NCI-H460 cells; assay type: functional; settings: Homo sapiens
ACHN = test: Cytotoxicity against ACHN cells; assay type: functional; settings: Homo sapiens
HT-29 = test: Cytotoxicity against HT29 cells; assay type: functional; settings: Homo sapiens

CCc1c(Sc2ccc(C(=O)N[C@@H](CCC(=O)O)C(=O)O)cc2)[nH]c2nc(N)nc(N)c12
Activity (CCRF-CEM [1]): 12%
GI50 (MOLT-4): 0.48 µM
GI50 (SF-539): 0.24 µM
GI50 (MCF7): 0.17 µM
GI50 (SR): < 0.01 µM
Activity (CCRF-CEM [2]): 15%
GI50 (LOX IMVI): 0.044 µM
Activity (CCRF-CEM [3]): 12%
GI50 (SW-620): 0.026 µM
GI50 (UACC-62): 0.88 µM
GI50 (DU-145): 0.37 µM
EC50 (CCRF-CEM [4]): 6.7 µM
GI50 (U-251): 0.53 µM
GI50 (CCRF-CEM [5]): 0.017 µM
IC50 (Dihydrofolate reductase): 0.066 µM
GI50 (SN12C): 0.6 µM
EC50 (CCRF-CEM [6]): 0.068 µM
GI50 (OVCAR-8): 0.74 µM
Activity (CCRF-CEM [7]): 74%
GI50 (CAKI-1): 0.17 µM
GI50 (SF-268): 0.43 µM
GI50 (UO-31): 0.3 µM
GI50 (PC-3): 0.4 µM
GI50 (KM12): 0.056 µM
GI50 (SF-295): 0.66 µM
GI50 (HCT-116): 0.023 µM
EC50 (CCRF-CEM [8]): 5.7 µM
GI50 (MDA-MB-435): 0.66 µM
EC50 (CCRF-CEM [9]): 0.2 µM
GI50 (K562): 0.012 µM
GI50 (NCI-H460): 0.18 µM
GI50 (ACHN): 0.44 µM
GI50 (HT-29): 0.098 µM
